Reference: the supplement of paper PMC11579375

What was measured:
Test in all cases: area under the viability dose-response curve (AUC) (AUC (arbitrary units, max 500 = no viability loss)); higher = less sensitive (higher viability)
Details in all cases: exposure time: 120 h; concentration range: 0.1 nM - 10 µM, 6 doses
17E = tested on: 17E (embryonal-type hepatoblastoma organoid)
Experimental: (§1)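 Patient-derived hepatoblastoma tumor organoids (about 50 organoids per well, 384-well plates, medium with 5% BME) were treated with the PMC pediatric cancer drug library. Each drug was tested in duplicate at 6 concentrations (0.1 nM to 10 µM, 10-fold steps).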

17F1 = tested on: 17F1 (fetal-I hepatoblastoma organoid with intermediate liver markers)
Experimental: as §1

22E = tested on: 22E (embryonal-type hepatoblastoma organoid)
Experimental: as §1

13F2 = tested on: 13F2 (fetal-II hepatoblastoma organoid with high liver markers)
Experimental: as §1

10F2 = tested on: 10F2 (fetal-II hepatoblastoma organoid with high liver markers)
Experimental: as §1

13E = tested on: 13E (embryonal-type hepatoblastoma organoid)
Experimental: as §1

3E = tested on: 3E (embryonal-type hepatoblastoma organoid)
Experimental: as §1

27F1 = tested on: 27F1 (fetal-I hepatoblastoma organoid with intermediate liver markers)
Experimental: as §1

135F2 = tested on: 135F2 (fetal-II hepatoblastoma organoid with high liver markers)
Experimental: as §1

8F1 = tested on: 8F1 (fetal-I hepatoblastoma organoid with intermediate liver markers)
Experimental: as §1

96F1 = tested on: 96F1 (fetal-I hepatoblastoma organoid with intermediate liver markers)
Experimental: as §1

Compound	area under the viability dose-response curve (17E)	area under the viability dose-response curve (17F1)	area under the viability dose-response curve (22E)	area under the viability dose-response curve (13F2)	area under the viability dose-response curve (10F2)	area under the viability dose-response curve (13E)	area under the viability dose-response curve (3E)	area under the viability dose-response curve (27F1)	area under the viability dose-response curve (135F2)	area under the viability dose-response curve (8F1)	area under the viability dose-response curve (96F1)
C[C@H]1Oc2cc(cnc2N)-c2c(nn(C)c2C#N)CN(C)C(=O)c2ccc(F)cc21 [Lorlatinib]	416	481	471	448	435	450	459	471	498	476	463
NC1(c2ccc(-c3nc4ccn5c(=O)[nH]nc5c4cc3-c3ccccc3)cc2)CCC1 [MK-2206]	377	473	440	395	445	415	371	459	462	431	427
CCC(CC)(NC(=O)C(C)C)C(=O)N[C@@H](CCCN=C(N)N)C(=O)NC1(C(=O)NC(c2ccc(F)cc2)c2ccc(F)cc2)CCCC1 [MM102]	> 500	486	464	482	445	> 500	> 500	493	497	> 500	485
CN/N=N/c1[nH]cnc1C(N)=O [MTIC]	> 500	> 500	> 500	443	445	> 500	> 500	> 500	> 500	> 500	> 500
Cc1ccc(NC(=O)c2ccc(CN3CCN(C)CC3)cc2)cc1Nc1nc(-c2cccnc2)cs1 [Masitinib]	462	> 500	474	489	497	489	483	> 500	473	> 500	484
N[C@@H](Cc1ccc(N(CCCl)CCCl)cc1)C(=O)O [Melphalan]	434	> 500	> 500	436	414	417	> 500	> 500	469	483	467
Cc1ccc(C(=O)Nc2ccc(Oc3cc4cnn(C)c4cc3-c3cn[nH]c3)c(F)c2)c(=O)n1-c1ccc(F)cc1 [Merestinib]	486	> 500	464	466	432	463	452	> 500	487	484	> 500
CN(Cc1cnc2nc(N)nc(N)c2n1)c1ccc(C(=O)N[C@@H](CCC(=O)O)C(=O)O)cc1 [Methotrexate]	451	334	452	274	429	381	483	366	294	382	345
CO[C@@H]1[C@H](N(C)C(=O)c2ccccc2)C[C@H]2O[C@]1(C)n1c3ccccc3c3c4c(c5c6ccccc6n2c5c31)C(=O)NC4 [Midostaurin]	364	442	417	335	372	427	338	> 500	365	454	431
CC1(C)CCC2(CC1)N[C@@H](C(=O)N[C@@H]1CC[C@@H](C(N)=O)OC1)[C@H](c1ccnc(Cl)c1F)[C@]21C(=O)Nc2cc(Cl)ccc21 [Milademetan]	294	376	406	256	268	370	313	357	341	367	399
Nc1ncccc1-c1nc2ccc(-c3ccccc3)nc2n1-c1ccc(C2(N)CCC2)cc1 [Miransertib]	365	494	387	422	446	421	338	447	429	428	433
CCNC(=O)C[C@@H]1N=C(c2ccc(Cl)cc2)c2cc(OC)ccc2-n2c(C)nnc21 [Molibresib]	400	477	442	389	386	468	378	498	417	465	497
N#CCNC(=O)c1ccc(-c2ccnc(Nc3ccc(N4CCOCC4)cc3)n2)cc1 [Momelotinib]	444	489	489	443	442	471	462	496	462	479	465
FC(F)(F)c1ccc(/C=C/c2nc(COc3ccc(CCCCn4ccnn4)cc3)co2)cc1 [Mubritinib]	419	245	449	264	438	339	429	335	334	263	269
CC1(C)CCC(c2ccc(Cl)cc2)=C(CN2CCN(c3ccc(C(=O)NS(=O)(=O)c4ccc(N[C@H](CCN5CCOCC5)CSc5ccccc5)c(S(=O)(=O)C(F)(F)F)c4)cc3)CC2)C1 [Navitoclax]	423	433	423	409	335	414	326	421	425	321	423
COc1ccc([C@@H](O)c2cc(-c3ncnc4cc(N5CCOCC5)ccc34)c(F)cc2Cl)nn1 [Nedisertib]	409	486	462	394	404	453	435	493	463	479	462
CCOc1cc2ncc(C#N)c(Nc3ccc(OCc4ccccn4)c(Cl)c3)c2cc1NC(=O)/C=C/CN(C)C [Neratinib]	424	431	453	319	234	464	444	362	462	449	416

Compound	area under the viability dose-response curve (17E)	area under the viability dose-response curve (17F1)	area under the viability dose-response curve (22E)	area under the viability dose-response curve (13F2)	area under the viability dose-response curve (10F2)	area under the viability dose-response curve (13E)	area under the viability dose-response curve (3E)	area under the viability dose-response curve (27F1)	area under the viability dose-response curve (135F2)	area under the viability dose-response curve (8F1)	area under the viability dose-response curve (96F1)
Cc1cn(-c2cc(NC(=O)c3ccc(C)c(Nc4nccc(-c5cccnc5)n4)c3)cc(C(F)(F)F)c2)cn1 [Nilotinib]	456	496	478	471	> 500	493	489	> 500	476	486	495
O=C(c1cc(Cc2n[nH]c(=O)c3ccccc23)ccc1F)N1CCN(C(=O)C2CC2)CC1 [Olaparib]	494	> 500	458	491	470	496	477	476	492	> 500	490
C=CC(=O)Nc1cc(Nc2nccc(-c3cn(C)c4ccccc34)n2)c(OC)cc1N(C)CCN(C)C [Osimertinib]	448	468	423	364	335	424	378	380	442	490	449
CC(=O)O[C@H]1C(=O)[C@@]2(C)[C@H]([C@H](OC(=O)c3ccccc3)[C@]3(O)C[C@H](OC(=O)[C@H](O)[C@@H](NC(=O)c4ccccc4)c4ccccc4)C(C)=C1C3(C)C)[C@]1(OC(C)=O)CO[C@@H]1C[C@@H]2O [Paclitaxel]	174	222	229	215	179	196	145	250	211	312	179
CC(=O)c1c(C)c2cnc(Nc3ccc(N4CCNCC4)cn3)nc2n(C2CCCC2)c1=O [Palbociclib]	373	> 500	460	337	398	467	382	470	431	499	460
C[C@]12CCCN1CC1=NNC(=O)c3cc(F)cc4[nH]c2c1c34 [Pamiparib]	> 500	> 500	473	443	439	481	459	487	478	479	494
Cc1[nH]c2ccccc2c1CCNCc1ccc(/C=C/C(=O)NO)cc1 [Panobinostat]	218	271	319	220	166	294	210	296	248	325	290
NS(=O)(=O)OC[C@@H]1C[C@@H](n2ccc3c(N[C@H]4CCc5ccccc54)ncnc32)C[C@@H]1O [Pevonedistat]	383	400	470	329	425	451	448	333	342	445	381
CS(=O)(=O)N1CCN(Cc2cc3nc(-c4cccc5[nH]ncc45)nc(N4CCOCC4)c3s2)CC1 [Pictilisib]	350	493	404	365	391	413	380	376	411	482	422
CC(C)N(C[C@H]1O[C@@H](n2cnc3c(N)ncnc32)[C@H](O)[C@@H]1O)[C@H]1C[C@@H](CCc2nc3cc(C(C)(C)C)ccc3[nH]2)C1 [Pinometostat]	453	472	> 500	486	432	493	> 500	490	489	497	469
C[C@]12C=CC(=O)C=C1CC[C@@H]1[C@@H]2[C@@H](O)C[C@@]2(C)[C@H]1CC[C@]2(O)C(=O)CO [Prednisolone]	467	493	487	> 500	475	494	472	489	475	472	479
COc1cccc(OCCCN)c1-c1cc(Nc2cnc(C#N)cn2)n[nH]1 [Prexasertib]	274	371	345	345	293	313	172	264	324	334	320
CC(C)(C)c1cc(NC(=O)Nc2ccc(-c3cn4c(n3)sc3cc(OCCN5CCOCC5)ccc34)cc2)no1 [Quizartinib]	432	471	484	485	474	> 500	> 500	> 500	489	494	489
Cn1nccc1Nc1nccc(-c2ccn([C@H](CO)c3ccc(Cl)c(F)c3)c(=O)c2)n1 [Ravoxertinib]	475	> 500	468	354	331	470	494	> 500	380	> 500	483
CNCc1ccc(-c2[nH]c3cc(F)cc4c3c2CCNC4=O)cc1 [Rucaparib]	489	489	475	458	446	484	490	> 500	452	476	> 500
N#CC[C@H](C1CCCC1)n1cc(-c2ncnc3[nH]ccc23)cn1 [Ruxolitinib]	487	478	440	487	492	> 500	462	> 500	491	> 500	490
